Tests used:
[1] = target: IDH1 R132C (Homo sapiens, UniProt O75874, R132C); test: Effect on IDH1 R132C enzyme activity (NADPH consumption, diaphorase/resazurin fluorescence); assay type: biochemical; conditions: 80 ng IDH1 R132C, α-KG 2 mM, NADPH 20 μM, 60 min preincubation
Method: (§1) Test method: The enzyme activity of IDH1 converting α-KG to 2HG was measured by the consumption of NADPH. After the enzymatic reaction finished, the amount of residual NADPH can be reflected by fluorescence signal generated by the addition of catalytically excessive diphhorase and reazurin.
(§2) 50 μL mixed liquid of substrate α-KG and NADPH (final concentration of substrate α-KG was 2 mM, final concentration of NADPH was 20 μM), and the plate was incubated in dark for 60 min at room temperature. Detection reaction: 50 μL 1×detection buffer diluted 0.01 unit diabase and 30 μM resazurin were added into each well, and the mixture was incubated in dark at room temperature for 10 min. […] IC50 value was calculated by GraphPad Prism software.

[2] = target: IDH1 R132H (Homo sapiens, UniProt O75874, R132H); test: Effect on IDH1 R132H enzyme activity (NADPH consumption, diaphorase/resazurin fluorescence); assay type: biochemical; conditions: 100 ng IDH1 R132H, α-KG 1 mM, NADPH 20 μM, 60 min preincubation
IDH1 R132H, sequence (O75874 whole entry R132H): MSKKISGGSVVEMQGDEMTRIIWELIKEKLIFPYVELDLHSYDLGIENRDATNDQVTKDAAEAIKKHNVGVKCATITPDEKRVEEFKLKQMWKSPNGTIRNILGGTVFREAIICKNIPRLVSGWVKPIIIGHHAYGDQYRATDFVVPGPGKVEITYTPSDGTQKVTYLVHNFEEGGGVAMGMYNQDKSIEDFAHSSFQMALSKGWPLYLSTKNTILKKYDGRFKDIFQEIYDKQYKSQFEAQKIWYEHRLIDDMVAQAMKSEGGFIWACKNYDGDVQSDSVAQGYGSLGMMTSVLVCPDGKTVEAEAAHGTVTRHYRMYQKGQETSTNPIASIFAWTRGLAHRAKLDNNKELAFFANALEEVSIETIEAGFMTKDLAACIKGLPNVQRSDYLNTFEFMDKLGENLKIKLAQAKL
Method: as §1
as §2, with “α-KG was 1 mM, final” for “α-KG was 2 mM, final”, “and the mixture was incubated” for “and the plate was incubated”

[3] = tested on: 2HG of fibrosarcoma cell line HT1080 expressing IDH1 mutant IDH1-R132C; test: Inhibition of 2HG of fibrosarcoma cell line HT1080; assay type: cell-based; conditions: Homo sapiens, HT-1080; HT1080 cells, 48 hours with compound, 2HG in cell supernatant; read-out: HT1080 2HG inhibitory IC50
Method: In this experiment, the inhibitory activity of the compound of the disclosure on the concentration level of 2HG of the fibrosarcoma cell line HT1080 was determined by the following method.
The cells were digested with trypsin and inoculated into a 24 well cell culture plate with a density of 10000 cells/well. The cells were cultured in a 5% CO2 cell incubator at 37° C. After overnight culture, the test compound was added to the cells. The final concentration of DMSO was 0.1%, and DMSO was used as control. The plate was then placed in a cell incubator and cultured for 48 hours.
Detection of 2HG: 2-HG was measured by PicoProbe™ D-2-Hydroxyglutarate (D2HG) Assay Kit of BioVision. 500 uL cell supernatant was taken from each well and added to a 10 kD centrifuge column, 12000 g, and centrifuged for 10 minutes to remove the effect of enzyme activity. […] IC50 value was calculated by GraphPad Prism software.
The inhibition rate of the sample was obtained by the following formula: […]
IC50 value was calculated by GraphPad Prism software.

IDH1 R132C, sequence (O75874 whole entry R132C): as the sequence (O75874 whole entry R132H) above, with H132C counted along it

Row | SMILES | IC50 [1] [nM] | IC50 [2] [nM] | IC50 [3] [nM]
1 | CC(C)[C@@H]1N(c2ccnc(N[C@@H](C)c3ncn4c3CCc3cc(C(F)(F)F)ccc3-4)n2)C(=O)OC1(C)C [Compound 18, (S)-4-isopropyl-5,5-dimethyl-3-(2-(((S)-1-(7-trifluoromethyl-4,5-dihydroimidazo[1,5-a]quinolin-3-yl)ethyl)amino)pyrimidin-4-yl)oxazolidin-2-one] | < 50 | 50 to 500 | 26
2 | C[C@H](Nc1nc(Cl)cc(N2C(=O)OC[C@@H]2[C@H](C)F)n1)c1ncn2c1CCc1cc(C(F)(F)F)ccc1-2 [Compound 7, (R)-3-(6-chloro-2-(((S)-1-(7-trifluoromethyl-4,5-dihydroimidazo[1,5-a]quinolin-3-yl)ethyl)amino)pyrimidin-4-yl)-4-((S)-1-fluoroethyl)oxazolidin-2-one] | < 50 | < 50 | 35
3 | CC(C)[C@H]1COC(=O)N1c1ccnc(N[C@@H](C)c2ncn3c2CCCc2cc(C(F)(F)F)ccc2-3)n1 [Compound 9, (S)-4-isopropyl-3-(2-(((S)-1-(8-trifluoromethyl-5,6-dihydro-4H-benzo[f]imidazo[1,5-a]azepin-3-yl)ethyl)amino)pyrimidin-4-yl)oxazolidin-2-one] | < 50 | 50 to 500 | 45
4 | C[C@H](Nc1nccc(N2C(=O)OC[C@@H]2C2CC2)n1)c1ncn2c1COc1cc(Cl)ccc1-2 [Compound 22, (S)-3-(2-(((S)-1-(7-chloro-4H-benzo[b]imidazo[1,5-d][1,4]oxazin-3-yl)ethyl)amino)pyrimidin-4-yl)-4-cyclopropyloxazolidin-2-one] | < 50 | 50 to 500 | 104
5 | C[C@H](Nc1nccc(N2C(=O)OC[C@@H]2[C@H](C)F)n1)c1ncn2c1COc1cc(C3CC3)ccc1-2 [Compound 26, (R)-3-(2-(((S)-1-(7-cyclopropyl-4H-benzo[b]imidazo[1,5-d][1,4]oxazin-3-yl)ethyl)amino)pyrimidin-4-yl)-4-((S)-1-fluoroethyl)oxazolidin-2-one] | < 50 | < 50 | 167
6 | C[C@H](Nc1nccc(N2C(=O)OC[C@@H]2[C@H](C)F)n1)c1ncn2c1CCc1cc(Cl)ccc1-2 [Compound 4, (R)-3-(2-(((S)-1-(7-chloro-4,5-dihydroimidazo[1,5-a]quinolin-3-yl)ethyl)amino)pyrimidin-4-yl)-4-((S)-1-fluoroethyl)oxazolidin-2-one] | < 50 | < 50 | 54
7 | C[C@H](Nc1nccc(N2C(=O)OC[C@@H]2[C@H](C)F)n1)c1ncn2c1COc1cc(Cl)ccc1-2 [Compound 1, (R)-3-(2-((S)-1-(7-chloro-4H-benzo[b]imidazo[1,5-d][1,4]oxazin-3-yl)ethylamino)pyrimidin-4-yl)-4-((S)-1-fluoroethyl)oxazolidin-2-one] | < 50 | < 50 | 60
8 | CC(C)[C@H]1C(C)OC(=O)N1c1ccnc(N[C@@H](C)c2ncn3c2CCc2cc(C(F)(F)F)ccc2-3)n1 (stereo partly drawn) [Compound 17, (4S)-4-isopropyl-5-methyl-3-(2-(((S)-1-(7-trifluoromethyl-4,5-dihydroimidazo[1,5-a]quinolin-3-yl)ethyl)amino)pyrimidin-4-yl)oxazolidin-2-one] | < 50 | < 50 | 87

Now those with a lower IC50 [3], led by results:

Row | IC50 [1] [nM] | IC50 [2] [nM] | IC50 [3] [nM] | SMILES
9 | < 50 | < 50 | 17 | C[C@H](Nc1nccc(N2C(=O)OC[C@@H]2[C@H](C)F)n1)c1ncn2c1CSc1cc(C(F)(F)F)ccc1-2 [Compound 21, (R)-4-((S)-1-fluoroethyl)-3-(2-(((S)-1-(7-trifluoromethyl-4H-benzo[b]imidazo[1,5-d][1,4]thiazin-3-yl)ethyl)amino)pyrimidin-4-yl)oxazolidin-2-one]
10 | < 50 | < 50 | 13 | CC(C)[C@H]1COC(=O)N1c1ccnc(N[C@@H](C)c2ncn3c2CCc2cc(C(F)(F)F)ccc2-3)n1 [Compound 3, (S)-4-isopropyl-3-(2-(((S)-1-(7-trifluoromethyl-4,5-dihydroimidazo[1,5-a]quinolin-3-yl)ethyl)amino)pyrimidin-4-yl)oxazolidin-2-one]
11 | < 50 | < 50 | 22 | Cc1ccc2c(c1)CCc1c([C@H](C)Nc3nccc(N4C(=O)OC[C@@H]4[C@H](C)F)n3)ncn1-2 [Compound 23, (R)-4-((S)-1-fluoroethyl)-3-(2-(((S)-1-(7-methyl-4,5-dihydroimidazo[1,5-a]quinolin-3-yl)ethyl)amino)pyrimidin-4-yl)oxazolidin-2-one]
12 | < 50 | < 50 | 7 | C[C@H](Nc1nccc(N2C(=O)OC[C@@H]2c2ccccc2)n1)c1ncn2c1CCc1cc(C(F)(F)F)ccc1-2 [Compound 20, (S)-4-phenyl-3-(2-(((S)-1-(7-trifluoromethyl-4,5-dihydroimidazo[1,5-a]quinolin-3-yl)ethyl)amino)pyrimidin-4-yl)oxazolidin-2-one]
13 | < 50 | < 50 | 12 | C[C@H](Nc1nccc(N2C(=O)OC[C@@H]2[C@H](C)F)n1)c1ncn2c1COc1cc(C(F)(F)F)ccc1-2 [Compound 2, (R)-4-((S)-1-fluoroethyl)-3-(2-(((S)-1-(7-trifluoromethyl-4H-benzo[b]imidazo[1,5-d][1,4]oxazin-3-yl)ethyl)amino)pyrimidin-4-yl)oxazolidin-2-one]
14 | < 50 | < 50 | 16 | C[C@H](Nc1nccc(N2C(=O)OC[C@@H]2[C@H](C)F)n1)c1ncn2c1CCc1cc(C(F)(F)F)ccc1-2 [Compound 5, (R)-4-((S)-1-fluoroethyl)-3-(2-(((S)-1-(7-trifluoromethyl-4,5-dihydroimidazo[1,5-a]quinolin-3-yl)ethyl)amino)pyrimidin-4-yl)oxazolidin-2-one]
15 | < 50 | < 50 | 20 | C[C@H](Nc1ncc(F)c(N2C(=O)OC[C@@H]2[C@H](C)F)n1)c1ncn2c1CCc1cc(C(F)(F)F)ccc1-2 [Compound 6, (R)-3-(5-fluoro-2-(((S)-1-(7-trifluoromethyl-4,5-dihydroimidazo[1,5-a]quinolin-3-yl)ethyl)amino)pyrimidin-4-yl)-4-((S)-1-fluoroethyl)oxazolidin-2-one]
16 | < 50 | < 50 | 13 | C[C@H](Nc1nccc(N2C(=O)OC[C@@H]2[C@H](C)F)n1)c1ncn2c1CCc1ccc(C(F)(F)F)cc1-2 [Compound 28, (R)-4-((S)-1-fluoroethyl)-3-(2-(((S)-1-(8-trifluoromethyl-4,5-dihydroimidazo[1,5-a]quinolin-3-yl)ethyl)amino)pyrimidin-4-yl)oxazolidin-2-one]
17 | < 50 | < 50 | 24 | CC(C)[C@H]1COC(=O)N1c1ccnc(N[C@@H](C)c2ncn3c2CSc2cc(C(F)(F)F)ccc2-3)n1 [Compound 12, (S)-4-isopropyl-3-(2-(((S)-1-(7-trifluoromethyl-4H-benzo[b]imidazo[1,5-d][1,4]thiazin-3-yl)ethyl)amino)pyrimidin-4-yl)oxazolidin-2-one]
18 |  |  | 25 | N#Cc1ccnc(N2C(=O)CC[C@H]2C(=O)N(c2cncc(F)c2)[C@H](C(=O)NC2CC(F)(F)C2)c2ccccc2Cl)c1 [AG120, reference compound]
